According to US9365584B2, “Thieno [2,3-B] pyridinedione activators of AMPK and therapeutic uses thereof” (Poxel, priority 2009, dated 2016):

What follows are molecules tested on AMPK (assay: AMPK enzyme activity assay (Delfia technology, AMARA peptide substrate)). Settings: compound at 30 μM vs AMP at 200 μM.
Assay type: biochemical
Summary of the method: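 Value is the ratio of compound (30 μM) to AMP (200 μM) response, each as % of basal control. Phosphorylation of the AMARA peptide after AMPK addition was read by Delfia with an anti-phosphoserine antibody.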

Row | SMILES | Activity: Ratio between the % of control (basal activity) of compound of formula (1) at 30 μM and the % of control (basal activity) of AMP (natural substrate) at 200 μM
1 | Cc1ccc(C2(C)C(=O)Nc3sc(Cl)c(-c4cccc(C)c4)c3C2=O)cc1 (centres unmarked) [No 117, 2-chloro-5-methyl-3-(m-tolyl)-5-(p-tolyl)-7H-thieno[2,3-b]pyridine-4,6-dione] | A (0%<A<50%)
2 | COc1cc(C)ccc1-c1csc2c1C(=O)C(F)(c1ccccc1)C(=O)N2 (centres unmarked) [No 118, 5-fluoro-3-(2-methoxy-4-methyl-phenyl)-5-phenyl-7H-thieno[2,3-b]pyridine-4,6-dione] | B (50%≦B<75%)
3 | COc1cc(C)ccc1-c1c(F)sc2c1C(=O)C(F)(c1ccccc1)C(=O)N2 (centres unmarked) [No 119, 2,5-difluoro-3-(2-methoxy-4-methyl-phenyl)-5-phenyl-7H-thieno[2,3-b]pyridine-4,6-dione] | B (50%≦B<75%)
4 | O=C1Nc2scc(-c3ccc(Br)cc3)c2C(=O)C1(F)c1ccncc1 (centres unmarked) [No 124, 3-(4-bromophenyl)-5-fluoro-5-(4-pyridyl)-7H-thieno[2,3-b]pyridine-4,6-dione] | B (50%≦B<75%)
5 | COc1cccc(C2(C)C(=O)Nc3sc(Cl)c(-c4cccc(C)c4)c3C2=O)c1 (centres unmarked) [No 126, 2-chloro-5-(3-methoxyphenyl)-5-methyl-3-(m-tolyl)-7H-thieno[2,3-b]pyridine-4,6-dione] | B (50%≦B<75%)
6 | COc1cc(Br)ccc1-c1csc2c1C(=O)C(F)(c1ccccc1)C(=O)N2 (centres unmarked) [No 127, 3-(4-bromo-2-methoxy-phenyl)-5-fluoro-5-phenyl-7H-thieno[2,3-b]pyridine-4,6-dione] | A (0%<A<50%)
7 | COc1cc(Br)ccc1-c1c(F)sc2c1C(=O)C(F)(c1ccccc1)C(=O)N2 (centres unmarked) [No 128, 3-(4-bromo-2-methoxy-phenyl)-2,5-difluoro-5-phenyl-7H-thieno[2,3-b]pyridine-4,6-dione] | A (0%<A<50%)
8 | Cc1ccccc1-c1c(F)sc2c1C(=O)C(F)(c1ccccc1)C(=O)N2 (centres unmarked) [No 130, 2,5-difluoro-3-(o-tolyl)-5-phenyl-7H-thieno[2,3-b]pyridine-4,6-dione] | B (50%≦B<75%)
9 | CC1(c2cccc(S(C)(=O)=O)c2)C(=O)Nc2sc(Cl)c(-c3ccccc3F)c2C1=O (centres unmarked) [No 139, 2-chloro-3-(2-fluorophenyl)-5-methyl-5-(3-methyl-sulfonylphenyl)-7H-thieno[2,3-b]pyridine-4,6-dione] | A (0%<A<50%)
10 | CC1(c2ccc(O)cc2)C(=O)Nc2sc(Cl)c(-c3ccccc3)c2C1=O (centres unmarked) [No 140, 2-chloro-5-(4-hydroxyphenyl)-5-methyl-3-phenyl-7H-thieno[2,3-b]pyridine-4,6-dione] | A (0%<A<50%)
11 | COc1ccccc1-c1c(Cl)sc2c1C(=O)C(C)(c1ccc(S(C)(=O)=O)cc1)C(=O)N2 (centres unmarked) [No 141, 2-chloro-3-(2-methoxyphenyl)-5-methyl-5-(4-methyl-sulfonylphenyl)-7H-thieno[2,3-b]pyridine-4,6-dione] | A (0%<A<50%)
12 | CC(C)(C)c1ccc(-c2c(Cl)sc3c2C(=O)C(F)(c2ccccc2)C(=O)N3)cc1 (centres unmarked) [No 143, 3-(4-tert-butylphenyl)-2-chloro-5-fluoro-5-phenyl-7H-thieno[2,3-b]pyridine-4,6-dione] | A (0%<A<50%)
13 | Cc1ccc(-c2c(Cl)sc3c2C(=O)C(C)(c2cccc(C)c2)C(=O)N3)cc1 (centres unmarked) [No 144, 2-chloro-5-methyl-5-(m-tolyl)-3-(p-tolyl)-7H-thieno[2,3-b]pyridine-4,6-dione] | A (0%<A<50%)
14 | COc1ccccc1-c1c(Cl)sc2c1C(=O)C(C)(c1ccccc1)C(=O)N2 (centres unmarked) [No 145, 2-chloro-3-(2-methoxyphenyl)-5-methyl-5-phenyl-7H-thieno[2,3-b]pyridine-4,6-dione] | A (0%<A<50%)
15 | COc1ccc(C2(C)C(=O)Nc3sc(Cl)c(-c4cccc(F)c4)c3C2=O)cc1 (centres unmarked) [No 146, 2-chloro-3-(3-fluorophenyl)-5-(4-methoxyphenyl)-5-methyl-7H-thieno[2,3-b]pyridine-4,6-dione] | A (0%<A<50%)
16 | CC1(c2cccc(S(C)(=O)=O)c2)C(=O)Nc2sc(Cl)c(-c3cccc(F)c3)c2C1=O (centres unmarked) [No 148, 2-chloro-3-(3-fluorophenyl)-5-methyl-5-(3-methyl-sulfonylphenyl)-7H-thieno[2,3-b]pyridine-4,6-dione] | A (0%<A<50%)

Next, values leading:

Row | Activity: Ratio between the % of control (basal activity) of compound of formula (1) at 30 μM and the % of control (basal activity) of AMP (natural substrate) at 200 μM | SMILES
17 | A (0%<A<50%) | CS(=O)(=O)c1cccc(-c2csc3c2C(=O)C(F)(c2ccccc2)C(=O)N3)c1 (centres unmarked) [No 120, 5-fluoro-3-(3-methylsulfonylphenyl)-5-phenyl-7H-thieno[2,3-b]pyridine-4,6-dione]
18 | C (C≧75%) | Cc1ccc(-c2csc3c2C(=O)C(F)(c2ccccc2)C(=O)N3)c(O)c1 (centres unmarked) [No 121, 5-fluoro-3-(2-hydroxy-4-methyl-phenyl)-5-phenyl-7H-thieno[2,3-b]pyridine-4,6-dione]
19 | C (C≧75%) | O=C1Nc2scc(-c3c(F)cccc3F)c2C(=O)C1(F)c1ccccc1 (centres unmarked) [No 122, 3-(2,6-difluorophenyl)-5-fluoro-5-phenyl-7H-thieno[2,3-b]pyridine-4,6-dione]
20 | C (C≧75%) | O=C1Nc2scc(-c3ccc(Br)cc3O)c2C(=O)C1(F)c1ccccc1 (centres unmarked) [No 123, 3-(4-bromo-2-hydroxy-phenyl)-5-fluoro-5-phenyl-7H-thieno[2,3-b]pyridine-4,6-dione]
21 | A (0%<A<50%) | O=C1Nc2scc(-c3ccccc3Br)c2C(=O)C1(F)c1ccccc1 (centres unmarked) [No 125, 3-(2-bromophenyl)-5-fluoro-5-phenyl-7H-thieno[2,3-b]pyridine-4,6-dione]
22 | B (50%≦B<75%) | Cc1ccccc1-c1csc2c1C(=O)C(F)(c1ccccc1)C(=O)N2 (centres unmarked) [No 129, 5-fluoro-3-(o-tolyl)-5-phenyl-7H-thieno[2,3-b]pyridine-4,6-dione]
23 | B (50%≦B<75%) | O=C1Nc2scc(-c3ccccc3)c2C(=O)C1(F)c1cccc(C(F)(F)F)c1 (centres unmarked) [No 131, 5-fluoro-3-phenyl-5-[3-(trifluoromethyl)phenyl]-7H-thieno[2,3-b]pyridine-4,6-dione]
24 | A (0%<A<50%) | O=C1Nc2sc(F)c(-c3ccccc3)c2C(=O)C1(F)c1cccc(C(F)(F)F)c1 (centres unmarked) [No 132, 2,5-difluoro-3-phenyl-5-[3-(trifluoromethyl)phenyl]-7H-thieno[2,3-b]pyridine-4,6-dione]
25 | A (0%<A<50%) | O=C1Nc2scc(-c3ccccc3)c2C(=O)C1(F)c1ccc(C(F)(F)F)cc1 (centres unmarked) [No 133, 5-fluoro-3-phenyl-5-[4-(trifluoromethyl)phenyl]-7H-thieno[2,3-b]pyridine-4,6-dione]
26 | A (0%<A<50%) | O=C1Nc2sc(F)c(-c3ccccc3)c2C(=O)C1(F)c1ccc(C(F)(F)F)cc1 (centres unmarked) [No 134, 2,5-difluoro-3-phenyl-5-[4-(trifluoromethyl)phenyl]-7H-thieno[2,3-b]pyridine-4,6-dione]
27 | A (0%<A<50%) | O=C1Nc2scc(-c3ccc(C(F)(F)F)cc3)c2C(=O)C1(F)c1ccccc1 (centres unmarked) [No 135, 5-fluoro-5-phenyl-3-[4-(trifluoromethyl)phenyl]-7H-thieno[2,3-b]pyridine-4,6-dione]
28 | B (50%≦B<75%) | Cc1cccc(-c2csc3c2C(=O)C(F)(c2ccccc2)C(=O)N3)c1 (centres unmarked) [No 136, 5-fluoro-3-(m-tolyl)-5-phenyl-7H-thieno[2,3-b]pyridine-4,6-dione]
29 | C (C≧75%) | Cc1cccc(-c2c(F)sc3c2C(=O)C(F)(c2ccccc2)C(=O)N3)c1 (centres unmarked) [No 137, 2,5-difluoro-3-(m-tolyl)-5-phenyl-7H-thieno[2,3-b]pyridine-4,6-dione]
30 | B (50%≦B<75%) | O=C1Nc2scc(-c3ccccc3Cl)c2C(=O)C1(F)c1ccccc1 (centres unmarked) [No 138, 3-(2-chlorophenyl)-5-fluoro-5-phenyl-7H-thieno[2,3-b]pyridine-4,6-dione]
31 | A (0%<A<50%) | CC(C)(C)c1ccc(-c2csc3c2C(=O)C(F)(c2ccccc2)C(=O)N3)cc1 (centres unmarked) [No 142, 3-(4-tert-butylphenyl)-5-fluoro-5-phenyl-7H-thieno[2,3-b]pyridine-4,6-dione]
32 | C (C≧75%) | O=C1Nc2scc(-c3ccccc3O)c2C(=O)C1(F)c1ccccc1 (centres unmarked) [No 147, 5-fluoro-3-(2-hydroxyphenyl)-5-phenyl-7H-thieno[2,3-b]pyridine-4,6-dione]
